Source: patent US8431395B2, “Pluripotent cells from rat and other species” (The University Court of the University of Edinburgh, priority 2006, dated 2013)

How the values were obtained:
3i rat cells = assay: Maintenance of undifferentiated rat 3i cells under altered culture conditions; type: cell-based
From the text: We investigated the effect of altering the culture conditions on maintenance of the undifferentiated state. […] LIF is not included in culture medium, consistent with the sufficiency of 3i for mouse ES cells. Rat cells transferred from 3i to medium supplemented with serum and LIF or BMP and LIF differentiated into various morphologies and lost expression of Oct4 and Nanog (FIG. 13a). These observations indicate that the 3i rat cells have reduced responsiveness to gp130/Stat3 signalling compared with mouse ES cells^20, 21. This may be a significant contributory factor to previous failures to derive rat ES cells.
Cells cultured without inhibitors differentiated into various morphologies (FIG. 13b). […] These findings are consistent with the hypothesis that blockade of FGF/Erk signaling is the critical requirement to sustain the naïve pluripotent state (Ying et al., submitted).
Recently the derivation of cell lines from post-implantation egg cylinder stage epiblast has been reported in mice and rats^3, 10. […] In contrast the 3i rat cells do contribute to chimaeras. They also express Rex1, Stella (Dppa3) and alkaline phosphatase, markers of ES cells and early epiblast that are absent in EpiSCs. Furthermore 3i rat cells can readily be propagated after dissociation into single cells whereas maintained cell-cell contact appears critical for EpiSCs. […]

mouse ES cells = assay: Culture of pluripotent (ES) cells with inhibitors to promote self renewal; type: cell-based
From the text: Mix DMEM/F12-N2 medium with Neurobasal/B27 medium at the ration of 1:1. The media was used to dilute all compounds and grow the cells.

GSK3 = conditions: cited from earlier work

With `NC(=O)c1ccc(-c2nc(-c3ccccn3)c(-c3ccc4c(c3)OCO4)[nH]2)cc1` [SB431452] the “maintenance / propagation of undifferentiated rat cells” value (3i rat cells) was “did not impede propagation”.

In the case of `CCN(CC)CCCCNc1ncc2cc(-c3cc(OC)cc(OC)c3)c(NC(=O)NC(C)(C)C)nc2n1` [PD173074], the “fold lower concentration at which fully effective as substitute for SU5402” value (mouse ES cells; relative to SU5402) is reported as “about 100 fold”.

In the case of `Cc1c[nH]c(-c2cnc(NCCNc3ccc(C#N)cn3)nc2-c2ccc(Cl)cc2Cl)n1` [CHIR 99021], the specificity (GSK3) is listed as “specific for GSK3” and the “results as GSK3 inhibitor in culture of pluripotent cells” value (mouse ES cells) is listed as “Good results”.

In the case of CHIR 98014, the specificity (GSK3) is listed as “specific for GSK3” and the “results as GSK3 inhibitor in culture of pluripotent cells” value (mouse ES cells) is listed as “Good results”.
